The text below walks through data of ChEMBL document CHEMBL1201862, “PubChem BioAssay data set” (2004).

For series [1], the target named is Nucleotide-binding oligomerization domain-containing protein 1 (Homo sapiens, UniProt Q9Y239). Kind of series: NOD1 signaling inhibitors, SAR follow-up, revised (AID 2333). The series is classed as functional.
Series [2] addresses Nucleotide-binding oligomerization domain-containing protein 2 (Homo sapiens, UniProt Q9HC29). Nature of the series: NOD2 signaling inhibitors, cell-based, luminescence, uHTS, HEK293 (AID 1566). The class given is functional.
Series [3] can be described thus: cytotoxicity in HEK-293T cells, dose response, cytotoxicity control for TCR NF-kB inhibitor project, luminescence, T-cell screen hits (AID 489026).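 Note: cells exposed to compound about 14 hours before the viability readout.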 The class given is functional, cell-based.
The subject of series [4] is HEK293. Nature of the series: cells. Particulars: Homo sapiens.
The test system of series [5] is HEK293. Kind of series: NOD2 signaling inhibitors in MDP-stimulated cells, cell-based, uHTS, luminescence (AID 2001). The class given is functional. Particulars: Homo sapiens.
The subject of series [6] is HEK293. Nature of the series: NOD1 signaling inhibitors, primary screen, cell-based, luminescence, uHTS (AID 1578). The class given is functional. To be noted: Homo sapiens.
In series [7] the target is Induced myeloid leukemia cell differentiation protein Mcl-1 (Homo sapiens, UniProt Q07820). The class given is functional.
A further series addresses Tumor necrosis factor (Homo sapiens, UniProt P01375). Nature of the series: TNFa-triggered NF-kB activation inhibitors, SAR follow-up, cell-based, revised (AID 2337). The series is classed as functional.
For series [8], the system named is HEK293. Nature of the series: cells. The class given is functional, cell-based. Particulars: Homo sapiens.
Series [9] relates to HEK293. Kind of series: cells. The series is classed as functional, cell-based. To be noted: Homo sapiens. The source holds these as a separate data set.
Series [10] has as its system HEK293. Nature of the series: cells. The series is classed as functional, cell-based. To be noted: Homo sapiens. The source holds these as a separate data set.
The target in a further series is Cytochrome P450 2C9 (Homo sapiens, UniProt P11712).
The target of another series is Cytochrome P450 2D6 (Homo sapiens, UniProt P10635).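 Note: CYP2D6 member of a cytochrome P450 panel assay.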
Sequence of Cytochrome P450 2D6 (P10635 whole entry): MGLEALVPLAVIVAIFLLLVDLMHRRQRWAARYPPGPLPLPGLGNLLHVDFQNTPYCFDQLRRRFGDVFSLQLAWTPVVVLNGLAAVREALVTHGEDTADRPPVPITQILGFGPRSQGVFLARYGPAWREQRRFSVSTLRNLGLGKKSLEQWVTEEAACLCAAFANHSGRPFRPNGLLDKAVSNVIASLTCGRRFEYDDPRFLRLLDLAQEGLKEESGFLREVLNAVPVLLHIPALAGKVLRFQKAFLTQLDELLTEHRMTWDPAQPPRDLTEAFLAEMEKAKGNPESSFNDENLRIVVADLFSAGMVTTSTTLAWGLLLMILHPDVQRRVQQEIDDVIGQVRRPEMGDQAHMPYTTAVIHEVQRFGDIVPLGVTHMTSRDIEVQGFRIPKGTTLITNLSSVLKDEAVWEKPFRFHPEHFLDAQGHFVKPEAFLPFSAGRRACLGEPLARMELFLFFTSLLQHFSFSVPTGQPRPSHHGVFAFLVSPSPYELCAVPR
Series [11] addresses T1, Sentrin-specific protease 7 (Homo sapiens, UniProt Q9BQF6).
T1 sequence (Q9BQF6 whole entry): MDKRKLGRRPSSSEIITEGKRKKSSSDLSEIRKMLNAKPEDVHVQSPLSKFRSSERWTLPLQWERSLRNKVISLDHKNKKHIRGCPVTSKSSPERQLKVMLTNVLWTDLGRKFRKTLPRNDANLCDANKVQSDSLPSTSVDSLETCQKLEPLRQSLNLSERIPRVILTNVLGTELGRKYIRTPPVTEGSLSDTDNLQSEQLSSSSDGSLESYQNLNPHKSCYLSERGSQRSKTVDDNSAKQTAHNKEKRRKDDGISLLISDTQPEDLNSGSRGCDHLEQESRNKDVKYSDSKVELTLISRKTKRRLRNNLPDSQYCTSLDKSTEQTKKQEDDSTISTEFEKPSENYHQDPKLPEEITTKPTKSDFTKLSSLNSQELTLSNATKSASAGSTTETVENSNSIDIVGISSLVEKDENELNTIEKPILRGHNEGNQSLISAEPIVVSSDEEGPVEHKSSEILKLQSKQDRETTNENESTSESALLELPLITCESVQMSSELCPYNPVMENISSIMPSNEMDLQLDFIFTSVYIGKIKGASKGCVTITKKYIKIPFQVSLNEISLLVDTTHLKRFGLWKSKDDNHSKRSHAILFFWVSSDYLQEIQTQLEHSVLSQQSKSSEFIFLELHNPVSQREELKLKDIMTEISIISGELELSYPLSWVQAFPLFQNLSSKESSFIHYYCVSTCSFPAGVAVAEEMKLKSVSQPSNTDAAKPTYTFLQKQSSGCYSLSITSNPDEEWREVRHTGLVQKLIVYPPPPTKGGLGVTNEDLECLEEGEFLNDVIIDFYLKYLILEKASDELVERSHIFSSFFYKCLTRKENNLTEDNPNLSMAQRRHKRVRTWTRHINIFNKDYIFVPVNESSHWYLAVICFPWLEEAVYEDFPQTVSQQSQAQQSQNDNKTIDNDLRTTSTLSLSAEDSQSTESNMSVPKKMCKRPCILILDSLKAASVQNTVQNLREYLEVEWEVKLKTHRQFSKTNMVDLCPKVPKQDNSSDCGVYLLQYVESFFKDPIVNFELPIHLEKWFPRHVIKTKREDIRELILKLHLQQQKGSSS
The class given is functional.

Series [12] has as its target T2, Sentrin-specific protease 6 (Homo sapiens, UniProt Q9GZR1).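 Note: Luminescence-based dose-response confirmatory assay of SENP6 inhibition, following up an ultra-high-throughput screen.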
T2 sequence (Q9GZR1 whole entry): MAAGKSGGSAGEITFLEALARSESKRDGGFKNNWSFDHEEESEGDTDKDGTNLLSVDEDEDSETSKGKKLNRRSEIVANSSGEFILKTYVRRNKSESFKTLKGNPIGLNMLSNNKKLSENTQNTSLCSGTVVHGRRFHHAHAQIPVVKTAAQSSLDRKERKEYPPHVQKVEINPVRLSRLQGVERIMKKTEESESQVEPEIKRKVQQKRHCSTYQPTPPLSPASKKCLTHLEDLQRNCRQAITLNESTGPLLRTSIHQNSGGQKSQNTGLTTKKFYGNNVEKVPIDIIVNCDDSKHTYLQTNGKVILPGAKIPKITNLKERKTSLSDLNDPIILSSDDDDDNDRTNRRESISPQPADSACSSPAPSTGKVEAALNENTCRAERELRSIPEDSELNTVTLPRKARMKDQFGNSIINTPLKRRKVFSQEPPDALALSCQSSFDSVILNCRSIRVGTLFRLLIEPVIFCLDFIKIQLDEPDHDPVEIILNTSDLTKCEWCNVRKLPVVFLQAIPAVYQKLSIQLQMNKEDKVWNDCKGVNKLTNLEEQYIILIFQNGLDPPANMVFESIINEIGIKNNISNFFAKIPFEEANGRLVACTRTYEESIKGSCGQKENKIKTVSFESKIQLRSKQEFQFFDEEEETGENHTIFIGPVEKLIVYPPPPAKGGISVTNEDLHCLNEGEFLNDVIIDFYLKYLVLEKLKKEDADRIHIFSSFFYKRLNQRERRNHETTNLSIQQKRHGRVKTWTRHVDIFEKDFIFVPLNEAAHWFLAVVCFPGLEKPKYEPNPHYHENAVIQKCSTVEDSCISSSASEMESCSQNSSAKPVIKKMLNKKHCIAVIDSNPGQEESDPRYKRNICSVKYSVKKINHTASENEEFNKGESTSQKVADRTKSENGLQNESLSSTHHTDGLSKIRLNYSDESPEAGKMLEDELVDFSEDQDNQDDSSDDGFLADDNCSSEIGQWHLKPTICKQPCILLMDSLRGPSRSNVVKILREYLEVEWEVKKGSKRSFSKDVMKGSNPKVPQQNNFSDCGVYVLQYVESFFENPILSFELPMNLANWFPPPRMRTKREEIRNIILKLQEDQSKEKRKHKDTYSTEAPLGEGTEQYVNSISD
The class given is functional.

In the next series the target is Genome polyprotein (dengue virus type 2, UniProt P29990). Nature of the series: Dengue-2 NS5 methyltransferase inhibitors, primary screen, biochemical, confirmation dose response (AID 588689). The series is classed as functional.
Sequence of Genome polyprotein (P29990 2492-3391 limits assumed): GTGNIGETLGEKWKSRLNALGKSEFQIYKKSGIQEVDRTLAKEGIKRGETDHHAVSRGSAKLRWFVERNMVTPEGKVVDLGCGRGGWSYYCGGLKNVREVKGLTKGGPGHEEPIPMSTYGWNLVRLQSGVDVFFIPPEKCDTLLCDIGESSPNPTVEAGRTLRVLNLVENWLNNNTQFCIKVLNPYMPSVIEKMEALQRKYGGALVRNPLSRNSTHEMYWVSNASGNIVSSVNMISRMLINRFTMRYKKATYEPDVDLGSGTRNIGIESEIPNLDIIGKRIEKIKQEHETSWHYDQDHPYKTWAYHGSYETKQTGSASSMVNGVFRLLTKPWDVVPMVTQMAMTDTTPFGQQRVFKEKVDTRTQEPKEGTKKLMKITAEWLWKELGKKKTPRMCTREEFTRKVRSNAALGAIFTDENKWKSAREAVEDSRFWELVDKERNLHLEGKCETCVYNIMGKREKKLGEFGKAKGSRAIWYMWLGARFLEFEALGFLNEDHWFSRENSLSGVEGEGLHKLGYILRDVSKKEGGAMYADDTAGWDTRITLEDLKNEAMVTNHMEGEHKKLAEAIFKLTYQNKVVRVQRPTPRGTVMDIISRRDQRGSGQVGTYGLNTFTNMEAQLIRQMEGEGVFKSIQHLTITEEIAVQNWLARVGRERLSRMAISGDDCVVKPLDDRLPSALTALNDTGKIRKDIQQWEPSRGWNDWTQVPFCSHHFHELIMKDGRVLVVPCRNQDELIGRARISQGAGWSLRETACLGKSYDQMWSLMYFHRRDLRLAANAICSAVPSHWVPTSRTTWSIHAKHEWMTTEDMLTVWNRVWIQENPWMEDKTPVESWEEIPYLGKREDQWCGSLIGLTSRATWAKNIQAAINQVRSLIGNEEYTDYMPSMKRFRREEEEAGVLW
The target of another series is CAAX prenyl protease 1 (Saccharomyces cerevisiae S288c, UniProt P47154). Kind of series: Ste24 protease inhibitors, dose response, biochemical, S. cerevisiae, plate reader, cherry-pick (AID 488815).
Series [13] deals with CAAX prenyl protease 2 (Homo sapiens, UniProt Q9Y256). Kind of series: human Rce1 protease inhibitors, dose response, biochemical, yeast membranes, quenched-peptide fluorescence, cherry-pick (AID 588849).
Sequence of CAAX prenyl protease 2 (Homo sapiens, UniProt Q9Y256) (Q9Y256 whole entry): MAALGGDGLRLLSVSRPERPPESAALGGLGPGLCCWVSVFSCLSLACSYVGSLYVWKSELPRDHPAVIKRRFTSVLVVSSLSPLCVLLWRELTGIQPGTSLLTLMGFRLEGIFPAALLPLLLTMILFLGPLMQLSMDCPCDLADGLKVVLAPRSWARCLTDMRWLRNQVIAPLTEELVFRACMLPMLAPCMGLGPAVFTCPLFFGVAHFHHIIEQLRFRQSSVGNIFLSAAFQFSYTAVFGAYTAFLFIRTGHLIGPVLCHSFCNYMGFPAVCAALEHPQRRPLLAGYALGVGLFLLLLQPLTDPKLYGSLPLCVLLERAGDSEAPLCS
In series [14] the target is FAD-linked sulfhydryl oxidase ALR (Homo sapiens, UniProt P55789). Kind of series: inhibitors of human ALR sulfhydryl oxidase, dose response, biochemical, H2O2 detection, luminescence, cherry-pick (AID 493248).
Sequence of FAD-linked sulfhydryl oxidase ALR (P55789 whole entry): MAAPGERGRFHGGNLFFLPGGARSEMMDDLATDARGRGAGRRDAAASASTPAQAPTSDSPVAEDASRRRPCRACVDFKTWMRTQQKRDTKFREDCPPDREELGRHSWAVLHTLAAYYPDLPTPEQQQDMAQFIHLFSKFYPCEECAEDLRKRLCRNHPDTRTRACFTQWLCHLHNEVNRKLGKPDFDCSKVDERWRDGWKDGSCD
In the next series the target is T3, Caspase-3 (Homo sapiens, UniProt P42574).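 Note: Dose-response selectivity test against caspase-3 for candidate inhibitors of sentrin-specific proteases (SENPs).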
T3 sequence (P42574 whole entry): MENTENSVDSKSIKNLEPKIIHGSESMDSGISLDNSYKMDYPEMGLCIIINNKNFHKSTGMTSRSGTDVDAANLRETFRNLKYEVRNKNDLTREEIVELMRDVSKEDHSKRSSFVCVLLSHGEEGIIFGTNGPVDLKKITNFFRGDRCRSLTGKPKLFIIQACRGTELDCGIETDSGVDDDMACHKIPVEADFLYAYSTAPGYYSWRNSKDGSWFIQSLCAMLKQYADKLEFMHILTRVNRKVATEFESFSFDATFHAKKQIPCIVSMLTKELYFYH
The series is classed as functional.

Series [15] concerns the target T4, Sentrin-specific protease 8 (Homo sapiens, UniProt Q96LD8).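 Note: luminescence read-out of SENP8 inhibition, dose-response confirmation following an ultra-high-throughput screen.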
T4 sequence (Q96LD8 whole entry): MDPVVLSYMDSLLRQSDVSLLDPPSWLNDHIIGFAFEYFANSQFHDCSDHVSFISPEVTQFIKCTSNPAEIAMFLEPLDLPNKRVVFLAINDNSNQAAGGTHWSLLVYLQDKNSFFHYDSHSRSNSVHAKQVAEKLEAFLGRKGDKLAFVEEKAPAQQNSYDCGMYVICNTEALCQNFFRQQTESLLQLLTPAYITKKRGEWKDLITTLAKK
The series is classed as functional.

The target of series [16] is T5, Calpain-2 catalytic subunit (Sus scrofa, UniProt P43367).
T5 sequence (P43367 whole entry): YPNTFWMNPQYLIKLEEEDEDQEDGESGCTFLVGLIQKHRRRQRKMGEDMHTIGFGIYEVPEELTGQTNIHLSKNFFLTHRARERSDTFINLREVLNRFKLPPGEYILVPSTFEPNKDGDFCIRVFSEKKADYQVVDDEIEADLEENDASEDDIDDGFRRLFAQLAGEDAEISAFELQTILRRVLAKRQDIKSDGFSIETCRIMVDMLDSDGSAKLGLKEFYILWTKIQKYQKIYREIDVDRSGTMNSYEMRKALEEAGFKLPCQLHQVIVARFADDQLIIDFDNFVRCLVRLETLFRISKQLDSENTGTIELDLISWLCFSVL
Nature of the series: pig calpain II inhibitor potency, dose response, biochemical, fluorogenic peptide substrate (AID 1420). The class given is functional.

Series [17] addresses CAAX prenyl protease 2 (Saccharomyces cerevisiae S288c, UniProt Q03530). The series is classed as biochemical.
A further series has as its target Trypsin (Sus scrofa, UniProt P00761). Kind of series: porcine trypsin inhibitors, dose response, selectivity assay for Rce1 protease inhibitor project, biochemical, quenched peptide fluorescence, cherry-pick (AID 488789).

Active and inactive are the calls of the source. Some results are limits rather than exact numbers.

Sequence of Tumor necrosis factor (P01375 whole entry): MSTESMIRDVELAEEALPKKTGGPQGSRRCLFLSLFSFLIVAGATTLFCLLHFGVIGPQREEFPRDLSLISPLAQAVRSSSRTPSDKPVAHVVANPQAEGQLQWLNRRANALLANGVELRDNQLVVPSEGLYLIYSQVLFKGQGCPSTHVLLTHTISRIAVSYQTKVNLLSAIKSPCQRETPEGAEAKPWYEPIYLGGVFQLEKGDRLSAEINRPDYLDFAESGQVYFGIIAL
Sequence of Trypsin (P00761 whole entry): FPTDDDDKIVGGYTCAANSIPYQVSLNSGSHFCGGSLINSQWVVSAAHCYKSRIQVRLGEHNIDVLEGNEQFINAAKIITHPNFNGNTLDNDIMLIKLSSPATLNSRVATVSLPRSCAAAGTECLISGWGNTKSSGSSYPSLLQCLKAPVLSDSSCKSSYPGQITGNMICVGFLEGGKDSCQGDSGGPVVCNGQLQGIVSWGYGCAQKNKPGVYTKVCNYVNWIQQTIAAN
Sequence of Nucleotide-binding oligomerization domain-containing protein 1 (Q9Y239 whole entry, the tested form may be a part): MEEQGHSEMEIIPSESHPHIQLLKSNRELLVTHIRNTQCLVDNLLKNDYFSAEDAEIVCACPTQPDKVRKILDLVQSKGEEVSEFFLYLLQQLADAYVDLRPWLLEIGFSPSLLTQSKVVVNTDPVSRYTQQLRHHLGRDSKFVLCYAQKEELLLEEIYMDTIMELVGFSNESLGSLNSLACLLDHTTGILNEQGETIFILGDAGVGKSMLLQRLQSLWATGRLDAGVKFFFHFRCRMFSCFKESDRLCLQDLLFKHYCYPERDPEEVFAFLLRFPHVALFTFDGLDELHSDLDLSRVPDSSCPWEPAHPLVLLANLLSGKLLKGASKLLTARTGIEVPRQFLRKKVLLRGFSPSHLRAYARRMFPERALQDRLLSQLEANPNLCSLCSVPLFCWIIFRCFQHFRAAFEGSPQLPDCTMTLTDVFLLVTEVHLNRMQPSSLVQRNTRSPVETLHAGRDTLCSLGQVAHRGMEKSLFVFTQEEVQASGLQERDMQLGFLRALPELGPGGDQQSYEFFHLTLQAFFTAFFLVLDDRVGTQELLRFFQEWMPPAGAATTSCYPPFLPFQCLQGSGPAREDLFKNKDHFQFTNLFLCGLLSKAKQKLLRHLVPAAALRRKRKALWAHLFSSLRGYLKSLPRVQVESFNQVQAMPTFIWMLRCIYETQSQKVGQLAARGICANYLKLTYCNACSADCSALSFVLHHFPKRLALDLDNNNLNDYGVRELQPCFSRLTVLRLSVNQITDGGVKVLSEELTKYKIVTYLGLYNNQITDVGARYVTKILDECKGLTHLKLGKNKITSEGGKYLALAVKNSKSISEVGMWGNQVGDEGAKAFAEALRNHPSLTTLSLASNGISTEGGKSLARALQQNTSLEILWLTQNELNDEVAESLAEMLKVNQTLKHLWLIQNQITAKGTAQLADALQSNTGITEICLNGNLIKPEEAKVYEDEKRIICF
Sequence of CAAX prenyl protease 2 (Saccharomyces cerevisiae S288c, UniProt Q03530) (Q03530 whole entry): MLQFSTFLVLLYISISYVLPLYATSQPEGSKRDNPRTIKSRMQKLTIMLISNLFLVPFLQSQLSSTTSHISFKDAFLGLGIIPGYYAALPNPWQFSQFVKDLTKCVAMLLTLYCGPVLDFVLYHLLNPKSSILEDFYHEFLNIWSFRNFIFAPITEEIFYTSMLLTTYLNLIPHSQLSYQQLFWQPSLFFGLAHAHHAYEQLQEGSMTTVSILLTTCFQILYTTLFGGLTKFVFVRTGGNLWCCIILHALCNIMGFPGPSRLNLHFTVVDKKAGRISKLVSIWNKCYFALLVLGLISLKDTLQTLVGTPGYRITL
Sequence of Nucleotide-binding oligomerization domain-containing protein 2 (Q9HC29 whole entry, the tested form may be a part): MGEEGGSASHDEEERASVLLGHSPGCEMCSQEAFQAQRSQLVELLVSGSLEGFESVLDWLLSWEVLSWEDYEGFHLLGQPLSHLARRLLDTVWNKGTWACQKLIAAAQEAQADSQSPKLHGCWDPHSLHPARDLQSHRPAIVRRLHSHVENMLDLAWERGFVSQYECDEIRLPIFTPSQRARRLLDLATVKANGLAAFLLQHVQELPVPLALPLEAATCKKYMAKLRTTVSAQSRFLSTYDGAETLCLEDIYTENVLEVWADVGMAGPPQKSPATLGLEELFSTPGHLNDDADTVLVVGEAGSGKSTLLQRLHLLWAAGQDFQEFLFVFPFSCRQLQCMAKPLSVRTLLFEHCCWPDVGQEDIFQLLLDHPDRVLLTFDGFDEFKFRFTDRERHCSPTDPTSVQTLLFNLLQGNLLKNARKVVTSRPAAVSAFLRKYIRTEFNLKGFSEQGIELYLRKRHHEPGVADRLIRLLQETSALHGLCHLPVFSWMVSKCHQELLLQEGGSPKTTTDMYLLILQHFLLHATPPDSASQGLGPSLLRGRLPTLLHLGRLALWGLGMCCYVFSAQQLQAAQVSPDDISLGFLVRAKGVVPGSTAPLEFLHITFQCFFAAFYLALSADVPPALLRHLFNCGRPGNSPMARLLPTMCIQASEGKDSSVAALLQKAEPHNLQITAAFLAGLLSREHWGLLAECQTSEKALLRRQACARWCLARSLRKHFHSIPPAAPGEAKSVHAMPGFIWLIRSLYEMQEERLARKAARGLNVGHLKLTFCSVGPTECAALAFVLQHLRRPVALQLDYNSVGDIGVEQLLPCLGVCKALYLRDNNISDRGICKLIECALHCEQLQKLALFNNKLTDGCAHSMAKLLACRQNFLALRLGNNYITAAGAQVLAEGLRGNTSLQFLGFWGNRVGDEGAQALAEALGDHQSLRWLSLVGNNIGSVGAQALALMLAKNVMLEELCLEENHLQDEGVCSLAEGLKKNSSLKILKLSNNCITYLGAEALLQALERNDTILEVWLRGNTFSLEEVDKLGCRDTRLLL

As for `COC(=O)c1ccc2nc(Nc3nc4c(F)cc(F)cc4s3)sc2c1`, the IC50 in series [1] was 0.429 µM (active); in series [3], > 80 µM (inactive); in the series on HEK293 [4] it was 9.76 µM (active); in the series on HEK293 [5], 1.92 µM (active); in series [7] it was 2.8 µM (active); at Tumor necrosis factor, 0.23 µM (active). In addition, the IC50 is > 20 µM (inactive) in the series on HEK293 [8], 0.666 µM (active) with HEK293 [9] and > 20 µM (inactive) with HEK293 [10]. For the same molecule, the EC50 in [2] was 0.3 µM (active); in the series on HEK293 [6], 3.03 µM (active).

Turning to `Nn1c(SCC(=O)N2CCOCC2)nnc1-c1ccccc1Cl`, the AC50 was 0.0794 µM (inconclusive) at Cytochrome P450 2C9 and “inconclusive” at Cytochrome P450 2D6.

Turning to `O=C(O)c1ccc(N/N=C/c2cn(Cc3ccccc3F)c3ccccc23)cc1`, the IC50 is 3.24 µM (active) in series [11]; 2.6 µM (active) in series [12]; 64.1 µM (active) on Genome polyprotein; 22.7 µM (active) on Caspase-3; 2.92 µM (active) in series [15]; < 0.4 µM (not active) in series [16]. Moreover, the AC50 at CAAX prenyl protease 1 is 5.53 µM (active); at CAAX prenyl protease 2 [13], 5.18 µM (active); in [14] it was 2.1 µM (active); at CAAX prenyl protease 2 [17] it was 4.78 µM (active); at Trypsin, 13.8 µM (active).
